According to patent US20100266694A1, “Chitosan/Carbon Nanotube Composite Scaffolds for Drug Delivery” (priority 2009, published 2010):

Columns and labels:
Pseudomonas aeruginosa = assay: Turbidity test of amikacin eluates for bactericidal activity; format: cell-based; settings: amikacin eluates from constructs against Pseudomonas aeruginosa
Protocol: (§1) Eluates taken from constructs of these different types were tested for bactericidal activity in turbidity tests against appropriate strains of bacteria: amikacin eluates against Pseudomonas aeruginosa and vancomycin eluates against Staphylococcus aureus. Eluates were added to trypticase soy broth in a 1:10 dilution. Broth was then inoculated with bacteria and then incubated overnight at 37° C. Absorbance of these solutions (turbidity) was used as an indicator of bacterial growth. Percent inhibition of bacterial growth is calculated from these measurements.

Staphylococcus aureus = assay: Turbidity test of vancomycin eluates for bactericidal activity; format: cell-based; settings: vancomycin eluates from constructs against Staphylococcus aureus
Protocol: as §1

SMILES | time up to which elution is inhibitory (Pseudomonas aeruginosa) | time up to which elution is inhibitory (Staphylococcus aureus)
NCC[C@H](O)C(=O)N[C@@H]1C[C@H](N)[C@@H](O[C@H]2O[C@H](CN)[C@@H](O)[C@H](O)[C@H]2O)[C@H](O)[C@H]1O[C@H]1O[C@H](CO)[C@@H](O)[C@H](N)[C@H]1O [amikacin] | up to 24 hours | –
CN[C@H](CC(C)C)C(=O)N[C@H]1C(=O)N[C@@H](CC(N)=O)C(=O)N[C@H]2C(=O)N[C@H]3C(=O)N[C@H](C(=O)N[C@H](C(=O)O)c4cc(O)cc(O)c4-c4cc3ccc4O)[C@H](O)c3ccc(c(Cl)c3)Oc3cc2cc(c3O[C@@H]2O[C@H](CO)[C@@H](O)[C@H](O)[C@H]2O[C@H]2C[C@](C)(N)[C@H](O)[C@H](C)O2)Oc2ccc(cc2Cl)[C@H]1O [vancomycin] | – | up to 48 hours
